Measurements reported in US20150148372A1, “BICYCLIC HETEROCYCLES AS BET PROTEIN INHIBITORS” (Incyte Corporation, priority 2013, published 2015).

Key:
[1] = biological target: T1, BRD4-BD1 (Homo sapiens, UniProt O60885); test: BRD4 AlphaScreen assay, BD1; format: binding; settings: H4Ac4 peptide, 3.8 nM BRD4-BD1, read-out: BRD4 BD-1 enzyme IC50
T1 construct: 3.8 nM (BRD4-BD1, BPS Bioscience #31040); purchased BPS Bioscience 31040
Description: (§1) BRD4-BD1 and BRD4-BD2 assays were conducted in white 384-well polystyrene plate in a final volume of 20 μL for BD1 and 40 μL for BD2. Inhibitors were first serially diluted in DMSO and added to the plate wells before the addition of other reaction components. The final concentration of DMSO in the assay was 1.25% (BD1) and 0.83% (BD2). The assays were carried out at room temperature for 75 min. in the assay buffer (50 mM HEPES, pH 7.4, 100 mM NaCl, 0.05% CHAPS, 0.01% BSA), containing 50 nM Biotin-labeled tetra-acetylated histone H4 peptide (H4Ac4), 3.8 nM (BRD4-BD1, BPS Bioscience #31040) or 20 nM (BRD4-BD2, BPS Bioscience #31041). The reaction followed by the addition of 20 μL of assay buffer supplemented with Streptavidin donor beads (PerkinElmer 6760002) and GSH Acceptor beads (PerkinElmer-AL 109C) at 4 μg/mL under reduced light. After plate sealing, the plate was incubated in the dark at room temperature for 75 min. before reading on a PHERAstar FS plate reader (BMG Labtech). IC50 determination was performed by fitting the curve of percent control activity versus the log of the inhibitor concentration using the GraphPad Prism 5.0 software. IC50 data for the Examples is presented in Table 1 as determined by Assay A1.

[2] = biological target: T2, BRD4-BD2 (Homo sapiens, UniProt O60885); test: BRD4 AlphaScreen assay, BD2; format: binding; settings: H4Ac4 peptide, 20 nM BRD4-BD2, read-out: BRD4 BD-2 enzyme IC50
T2 construct: 20 nM (BRD4-BD2, BPS Bioscience #31041); purchased BPS Bioscience 31041
Description: as §1

Cn1cc(-c2c(Oc3ccc(F)cc3F)ccc3[nH]c(=O)[nH]c23)c2cc[nH]c2c1=O [Example 1, 5-(2,4-Difluorophenoxy)-4-(6-methyl-7-oxo-6,7-dihydro-H-pyrrolo[2,3-c]pyridin-4-yl)-1,3-dihydro-2H-benzimidazol-2-one]
IC50 [1]: 1 to 10 µM
IC50 [2]: 0.1 to 1 µM

Cn1cc(-c2c(Oc3ccc(F)cc3F)ccc3[nH]cnc23)c2cc[nH]c2c1=O [Example 2, 4-[5-(2,4-Difluorophenoxy)-1H-benzimidazol-4-yl]-6-methyl-1,6-dihydro-7H-pyrrolo[2,3-c]pyridin-7-one]
IC50 [1]: 1 to 10 µM
IC50 [2]: ≤ 0.1 µM
